Measured values published in the kinase profiling compilation of Christmann-Franck et al. (2016).

Columns and labels:
Test in all cases: KINOMEscan competition binding
Details in all cases: compound 10.0 µM
BRAF (human) = BRAF (human) (UniProt P15056)
BTK (human) = BTK (human) (UniProt Q06187)
CASK (human) = CASK (human) (UniProt O14936)
CDK13 (human) = CDK13 (human) (UniProt Q14004)
CDK2 (human) = CDK2 (human) (UniProt P24941)
CDKL3 (human) = CDKL3 (human) (UniProt Q8IVW4)
DDR1 (human) = DDR1 (human) (UniProt Q08345)
DSTYK (human) = DSTYK (human) (UniProt Q6XUX3)
[1] = test system: EGFR (human), P00533 [746-750 del]
[2] = test system: EGFR (human), P00533 [L861Q]
EPHB6 (human) = EPHB6 (human) (UniProt O15197)
ERN1 (human) = ERN1 (human) (UniProt O75460)
GRK7 (human) = GRK7 (human) (UniProt Q8WTQ7)
HIPK2 (human) = HIPK2 (human) (UniProt Q9H2X6)
HUNK (human) = HUNK (human) (UniProt P57058)
IRAK4 (human) = IRAK4 (human) (UniProt Q9NWZ3)
[3] = test system: KIT (human), P10721 [V559D/T670I]
MAP3K1 (human) = MAP3K1 (human) (UniProt Q13233)
MAP3K15 (human) = MAP3K15 (human) (UniProt Q6ZN16)
MET (human) = MET (human) (UniProt P08581)
MTOR (human) = MTOR (human) (UniProt P42345)
MYLK3 (human) = MYLK3 (human) (UniProt Q32MK0)
PI4KB (human) = PI4KB (human) (UniProt Q9UBF8)
PIK3CA (human) = PIK3CA (human) (UniProt P42336)
[4] = test system: PIK3CA (human), P42336 [C420R]
[5] = test system: PIK3CA (human), P42336 [E545A]
[6] = test system: PIK3CA (human), P42336 [E545K]
[7] = test system: PIK3CA (human), P42336 [H1047Y]
[8] = test system: PIK3CA (human), P42336 [Q546K]
PIP4K2C (human) = PIP4K2C (human) (UniProt Q8TBX8)
PIP5K1C (human) = PIP5K1C (human) (UniProt O60331)
PRKCI (human) = PRKCI (human) (UniProt P41743)
PRPF4B (human) = PRPF4B (human) (UniProt Q13523)
SBK1 (human) = SBK1 (human) (UniProt Q52WX2)
SGK3 (human) = SGK3 (human) (UniProt Q96BR1)
SIK3 (human) = SIK3 (human) (UniProt Q9Y2K2)
SNRK (human) = SNRK (human) (UniProt Q9NRH2)
TBK1 (human) = TBK1 (human) (UniProt Q9UHD2)
VRK2 (human) = VRK2 (human) (UniProt Q86Y07)
CPK1 (P.falciparum) = test system: CPK1 (P.falciparum)

Sequence of HUNK (human) (P57058 whole entry, looked up): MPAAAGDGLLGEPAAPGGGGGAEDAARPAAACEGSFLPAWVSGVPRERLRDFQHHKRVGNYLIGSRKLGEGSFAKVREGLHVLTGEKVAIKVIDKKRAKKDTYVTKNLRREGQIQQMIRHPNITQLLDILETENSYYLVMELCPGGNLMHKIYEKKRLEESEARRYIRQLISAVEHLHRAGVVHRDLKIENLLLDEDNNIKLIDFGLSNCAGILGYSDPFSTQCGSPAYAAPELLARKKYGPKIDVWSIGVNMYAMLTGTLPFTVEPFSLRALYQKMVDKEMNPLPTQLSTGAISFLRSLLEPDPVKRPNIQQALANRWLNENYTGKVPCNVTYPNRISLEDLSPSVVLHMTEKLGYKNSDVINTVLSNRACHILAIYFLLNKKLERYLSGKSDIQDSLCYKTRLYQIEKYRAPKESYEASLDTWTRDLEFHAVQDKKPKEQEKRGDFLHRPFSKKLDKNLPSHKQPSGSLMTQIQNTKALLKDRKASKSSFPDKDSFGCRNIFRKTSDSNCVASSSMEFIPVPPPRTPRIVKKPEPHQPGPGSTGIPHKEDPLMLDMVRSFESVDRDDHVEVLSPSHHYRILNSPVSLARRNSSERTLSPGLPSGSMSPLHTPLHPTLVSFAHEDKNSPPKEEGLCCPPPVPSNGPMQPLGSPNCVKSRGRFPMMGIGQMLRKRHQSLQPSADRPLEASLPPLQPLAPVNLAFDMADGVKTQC
Sequence of CASK (human) (O14936 whole entry, looked up): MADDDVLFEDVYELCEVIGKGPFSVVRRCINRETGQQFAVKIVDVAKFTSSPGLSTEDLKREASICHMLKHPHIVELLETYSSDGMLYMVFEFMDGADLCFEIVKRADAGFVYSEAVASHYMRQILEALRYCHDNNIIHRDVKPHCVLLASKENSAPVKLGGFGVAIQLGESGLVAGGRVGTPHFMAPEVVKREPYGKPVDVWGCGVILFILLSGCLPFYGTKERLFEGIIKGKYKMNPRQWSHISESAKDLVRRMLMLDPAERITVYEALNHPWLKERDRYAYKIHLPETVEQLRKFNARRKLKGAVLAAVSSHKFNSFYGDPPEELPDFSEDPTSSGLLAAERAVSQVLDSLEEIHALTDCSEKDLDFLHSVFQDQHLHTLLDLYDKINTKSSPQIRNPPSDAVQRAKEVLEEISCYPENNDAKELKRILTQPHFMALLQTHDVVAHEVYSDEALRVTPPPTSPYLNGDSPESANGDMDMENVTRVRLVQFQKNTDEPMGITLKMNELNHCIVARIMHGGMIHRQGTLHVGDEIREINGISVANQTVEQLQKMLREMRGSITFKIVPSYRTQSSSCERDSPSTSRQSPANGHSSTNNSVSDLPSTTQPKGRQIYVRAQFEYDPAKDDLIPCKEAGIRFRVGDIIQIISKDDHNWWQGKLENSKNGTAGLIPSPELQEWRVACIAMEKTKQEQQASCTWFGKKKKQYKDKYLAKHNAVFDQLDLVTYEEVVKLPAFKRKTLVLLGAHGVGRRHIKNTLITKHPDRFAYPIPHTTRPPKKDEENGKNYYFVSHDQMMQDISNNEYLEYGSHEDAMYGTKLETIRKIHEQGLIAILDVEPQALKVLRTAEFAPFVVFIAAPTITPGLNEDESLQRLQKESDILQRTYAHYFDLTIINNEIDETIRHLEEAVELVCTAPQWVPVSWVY
Sequence of DDR1 (human) (Q08345 whole entry, looked up): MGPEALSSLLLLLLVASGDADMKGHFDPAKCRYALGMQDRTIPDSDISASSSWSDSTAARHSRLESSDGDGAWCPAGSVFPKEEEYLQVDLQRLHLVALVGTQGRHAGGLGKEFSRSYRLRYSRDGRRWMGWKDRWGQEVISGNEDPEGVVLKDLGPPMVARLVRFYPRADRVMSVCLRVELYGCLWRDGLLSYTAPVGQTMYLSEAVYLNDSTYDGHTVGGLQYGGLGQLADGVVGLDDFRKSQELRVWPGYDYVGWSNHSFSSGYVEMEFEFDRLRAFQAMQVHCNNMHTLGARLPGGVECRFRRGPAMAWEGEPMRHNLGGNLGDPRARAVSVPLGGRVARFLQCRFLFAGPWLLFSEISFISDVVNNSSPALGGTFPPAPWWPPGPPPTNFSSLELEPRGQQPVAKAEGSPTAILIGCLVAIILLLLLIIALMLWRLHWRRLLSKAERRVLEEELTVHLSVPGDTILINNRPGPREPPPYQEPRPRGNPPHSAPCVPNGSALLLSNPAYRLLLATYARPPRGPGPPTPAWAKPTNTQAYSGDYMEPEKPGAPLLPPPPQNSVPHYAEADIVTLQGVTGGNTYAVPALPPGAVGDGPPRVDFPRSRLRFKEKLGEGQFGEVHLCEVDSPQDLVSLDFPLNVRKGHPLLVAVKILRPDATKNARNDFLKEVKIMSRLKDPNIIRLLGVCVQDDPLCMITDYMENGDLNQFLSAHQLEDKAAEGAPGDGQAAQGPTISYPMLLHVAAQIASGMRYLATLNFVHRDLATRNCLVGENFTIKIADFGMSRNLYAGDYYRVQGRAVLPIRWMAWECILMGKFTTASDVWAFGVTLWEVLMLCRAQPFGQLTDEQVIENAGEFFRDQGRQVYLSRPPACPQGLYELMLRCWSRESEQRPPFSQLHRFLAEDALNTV
Sequence of TBK1 (human) (Q9UHD2 whole entry, looked up): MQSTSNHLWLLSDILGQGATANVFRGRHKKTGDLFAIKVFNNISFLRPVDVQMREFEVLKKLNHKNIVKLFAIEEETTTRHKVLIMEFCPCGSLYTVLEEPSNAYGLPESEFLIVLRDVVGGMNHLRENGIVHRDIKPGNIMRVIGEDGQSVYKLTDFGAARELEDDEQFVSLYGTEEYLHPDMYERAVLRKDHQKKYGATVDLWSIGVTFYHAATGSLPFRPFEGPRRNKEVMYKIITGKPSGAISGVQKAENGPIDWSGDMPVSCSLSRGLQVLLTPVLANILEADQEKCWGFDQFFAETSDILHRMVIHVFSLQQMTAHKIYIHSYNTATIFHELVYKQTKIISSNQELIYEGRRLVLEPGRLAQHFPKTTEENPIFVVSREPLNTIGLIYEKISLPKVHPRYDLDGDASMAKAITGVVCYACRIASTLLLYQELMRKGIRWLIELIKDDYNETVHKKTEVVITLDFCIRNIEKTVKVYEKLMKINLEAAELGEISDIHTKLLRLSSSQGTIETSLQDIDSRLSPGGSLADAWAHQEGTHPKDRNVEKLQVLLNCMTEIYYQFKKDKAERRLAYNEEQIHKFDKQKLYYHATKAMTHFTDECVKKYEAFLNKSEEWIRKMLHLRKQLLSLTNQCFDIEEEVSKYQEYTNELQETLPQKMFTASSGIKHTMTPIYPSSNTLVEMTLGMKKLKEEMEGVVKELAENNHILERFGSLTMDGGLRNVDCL
Sequence of SIK3 (human) (Q9Y2K2 whole entry, looked up): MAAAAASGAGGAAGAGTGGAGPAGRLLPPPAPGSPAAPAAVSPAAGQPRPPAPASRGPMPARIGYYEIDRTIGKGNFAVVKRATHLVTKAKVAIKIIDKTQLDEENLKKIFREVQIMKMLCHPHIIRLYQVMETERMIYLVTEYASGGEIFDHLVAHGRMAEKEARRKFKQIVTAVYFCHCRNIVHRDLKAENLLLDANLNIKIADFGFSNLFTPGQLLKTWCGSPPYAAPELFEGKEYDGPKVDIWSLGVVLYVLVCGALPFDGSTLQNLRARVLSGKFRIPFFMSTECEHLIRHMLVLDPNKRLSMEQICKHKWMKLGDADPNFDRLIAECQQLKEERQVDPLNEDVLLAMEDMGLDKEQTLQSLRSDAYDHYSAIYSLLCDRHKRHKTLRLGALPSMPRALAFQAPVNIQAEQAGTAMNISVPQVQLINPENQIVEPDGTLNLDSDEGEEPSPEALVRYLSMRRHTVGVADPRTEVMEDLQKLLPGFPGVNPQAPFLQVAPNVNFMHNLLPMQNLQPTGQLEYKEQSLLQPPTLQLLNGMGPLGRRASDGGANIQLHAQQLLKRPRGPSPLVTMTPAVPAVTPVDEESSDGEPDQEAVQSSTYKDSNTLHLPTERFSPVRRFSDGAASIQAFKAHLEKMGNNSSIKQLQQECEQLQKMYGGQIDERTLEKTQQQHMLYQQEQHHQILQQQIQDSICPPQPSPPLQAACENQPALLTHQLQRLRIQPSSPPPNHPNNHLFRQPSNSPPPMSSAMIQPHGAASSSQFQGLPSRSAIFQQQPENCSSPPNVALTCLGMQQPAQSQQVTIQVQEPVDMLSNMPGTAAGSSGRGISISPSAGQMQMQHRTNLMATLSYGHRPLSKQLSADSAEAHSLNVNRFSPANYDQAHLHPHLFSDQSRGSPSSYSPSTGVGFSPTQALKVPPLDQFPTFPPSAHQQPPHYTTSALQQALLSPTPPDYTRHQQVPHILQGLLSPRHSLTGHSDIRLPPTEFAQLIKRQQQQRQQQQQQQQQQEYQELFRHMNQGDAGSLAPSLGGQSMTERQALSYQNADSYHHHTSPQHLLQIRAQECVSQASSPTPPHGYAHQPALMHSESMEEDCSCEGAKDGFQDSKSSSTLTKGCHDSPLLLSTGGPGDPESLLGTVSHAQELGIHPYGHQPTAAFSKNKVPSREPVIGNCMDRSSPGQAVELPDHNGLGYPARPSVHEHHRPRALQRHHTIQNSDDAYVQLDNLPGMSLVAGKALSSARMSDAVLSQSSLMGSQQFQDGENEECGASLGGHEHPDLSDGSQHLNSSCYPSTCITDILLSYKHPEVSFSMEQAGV
Sequence of SBK1 (human) (Q52WX2 whole entry, looked up): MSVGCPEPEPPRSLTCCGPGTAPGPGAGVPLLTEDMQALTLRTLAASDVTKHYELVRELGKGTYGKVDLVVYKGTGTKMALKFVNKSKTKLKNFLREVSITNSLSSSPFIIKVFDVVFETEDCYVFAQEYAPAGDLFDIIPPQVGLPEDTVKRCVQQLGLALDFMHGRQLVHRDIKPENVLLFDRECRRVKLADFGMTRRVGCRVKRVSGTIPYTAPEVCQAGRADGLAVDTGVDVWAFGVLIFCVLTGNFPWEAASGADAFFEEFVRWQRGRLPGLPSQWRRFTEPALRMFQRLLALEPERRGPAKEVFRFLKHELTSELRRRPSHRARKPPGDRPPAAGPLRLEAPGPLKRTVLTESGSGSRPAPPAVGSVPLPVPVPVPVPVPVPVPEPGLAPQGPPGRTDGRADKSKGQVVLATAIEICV

Row | Compound | kinase still bound, per cent of control (BTK (human)) | kinase still bound, per cent of control (CASK (human)) | kinase still bound, per cent of control (CDK13 (human)) | kinase still bound, per cent of control (CDK2 (human)) | kinase still bound, per cent of control (CDKL3 (human)) | kinase still bound, per cent of control (DDR1 (human)) | kinase still bound, per cent of control (DSTYK (human)) | kinase still bound, per cent of control [1] | kinase still bound, per cent of control [2] | kinase still bound, per cent of control (EPHB6 (human)) | kinase still bound, per cent of control (ERN1 (human)) | kinase still bound, per cent of control (GRK7 (human)) | kinase still bound, per cent of control (HIPK2 (human)) | kinase still bound, per cent of control (HUNK (human)) | kinase still bound, per cent of control (IRAK4 (human)) | kinase still bound, per cent of control [3] | kinase still bound, per cent of control (MAP3K1 (human)) | kinase still bound, per cent of control (MAP3K15 (human)) | kinase still bound, per cent of control (MET (human)) | kinase still bound, per cent of control (MTOR (human)) | also measured
1 | COc1cc(N2CCN(C)CC2)ccc1Nc1nc(N)c(C(=O)c2c(Cl)cccc2Cl)s1 | 100% | 35% | 83% | 79% | 86% | 98% | 52% | 85% | 100% | 63% | 99% | 100% | 66% | 100% | 96% | 100% | 100% | 51% | 100% | 100% | kinase still bound, per cent of control (BRAF (human)): 94%; kinase still bound, per cent of control (MYLK3 (human)): 100%; kinase still bound, per cent of control (PI4KB (human)): 100%; kinase still bound, per cent of control (PIK3CA (human)): 99%; kinase still bound, per cent of control [4]: 100%; kinase still bound, per cent of control [5]: 100%; kinase still bound, per cent of control [6]: 100%; kinase still bound, per cent of control [7]: 100%; kinase still bound, per cent of control [8]: 78%; kinase still bound, per cent of control (PIP4K2C (human)): 46%; kinase still bound, per cent of control (PIP5K1C (human)): 85%; kinase still bound, per cent of control (PRKCI (human)): 93%; kinase still bound, per cent of control (PRPF4B (human)): 100%; kinase still bound, per cent of control (SBK1 (human)): 80%; kinase still bound, per cent of control (SGK3 (human)): 100%; kinase still bound, per cent of control (SIK3 (human)): 76%; kinase still bound, per cent of control (SNRK (human)): 82%; kinase still bound, per cent of control (TBK1 (human)): 100%; kinase still bound, per cent of control (VRK2 (human)): 100%
2 | O=C(NC1CC1)c1cccc(-c2ccc3c(NC(=O)C4CC4)n[nH]c3c2)c1 | 100% | 82% | 82% | 3.4% | 55% | 71% | 71% | 90% | 69% | 1.4% | 100% | 84% | 36% | 64% | 88% | 43% | 100% | 100% | 75% | 100% | kinase still bound, per cent of control (CPK1 (P.falciparum)): 18%; kinase still bound, per cent of control (MYLK3 (human)): 46%; kinase still bound, per cent of control (PI4KB (human)): 84%; kinase still bound, per cent of control (PIK3CA (human)): 99%; kinase still bound, per cent of control [4]: 100%; kinase still bound, per cent of control [5]: 93%; kinase still bound, per cent of control [6]: 95%; kinase still bound, per cent of control [7]: 89%; kinase still bound, per cent of control [8]: 98%; kinase still bound, per cent of control (PIP4K2C (human)): 95%; kinase still bound, per cent of control (PIP5K1C (human)): 12%; kinase still bound, per cent of control (PRKCI (human)): 74%; kinase still bound, per cent of control (PRPF4B (human)): 53%; kinase still bound, per cent of control (SBK1 (human)): 100%; kinase still bound, per cent of control (SGK3 (human)): 42%; kinase still bound, per cent of control (SIK3 (human)): 100%; kinase still bound, per cent of control (SNRK (human)): 100%; kinase still bound, per cent of control (TBK1 (human)): 61%; kinase still bound, per cent of control (VRK2 (human)): 100%
3 | CCN1CCN(Cc2ccc(Nc3ncc4c(n3)N(C)c3ccccc3C(=O)N4C)cc2C(F)(F)F)CC1 | 67% | 15% | 100% | 68% | 100% | 14% | 7.1% | 74% | 98% | 21% | 96% | 73% | 100% | 59% | 100% | 74% | 55% | 74% | 36% | 39% | kinase still bound, per cent of control (CPK1 (P.falciparum)): 74%; kinase still bound, per cent of control (MYLK3 (human)): 100%; kinase still bound, per cent of control (PI4KB (human)): 100%; kinase still bound, per cent of control (PIK3CA (human)): 25%; kinase still bound, per cent of control [4]: 18%; kinase still bound, per cent of control [5]: 6.2%; kinase still bound, per cent of control [6]: 24%; kinase still bound, per cent of control [7]: 3.3%; kinase still bound, per cent of control [8]: 3.2%; kinase still bound, per cent of control (PIP4K2C (human)): 3.6%; kinase still bound, per cent of control (PIP5K1C (human)): 24%; kinase still bound, per cent of control (PRKCI (human)): 100%; kinase still bound, per cent of control (PRPF4B (human)): 76%; kinase still bound, per cent of control (SBK1 (human)): 6.9%; kinase still bound, per cent of control (SGK3 (human)): 86%; kinase still bound, per cent of control (SIK3 (human)): 74%; kinase still bound, per cent of control (SNRK (human)): 88%; kinase still bound, per cent of control (TBK1 (human)): 60%; kinase still bound, per cent of control (VRK2 (human)): 100%
4 | C=CC(=O)Nc1cccc(Nc2nc(N[C@H]3CC[C@H](N(C)C)CC3)nc3c2ncn3C(C)C)c1 | 35% | 92% | 40% | 100% | 100% | 100% | 86% | 88% | 100% | 74% | 96% | 8.7% | 17% | 85% | 2.5% | 86% | 100% | 66% | 100% | 100% | kinase still bound, per cent of control (CPK1 (P.falciparum)): 98%; kinase still bound, per cent of control (MYLK3 (human)): 100%; kinase still bound, per cent of control (PI4KB (human)): 100%; kinase still bound, per cent of control (PIK3CA (human)): 100%; kinase still bound, per cent of control [4]: 89%; kinase still bound, per cent of control [5]: 100%; kinase still bound, per cent of control [6]: 100%; kinase still bound, per cent of control [7]: 90%; kinase still bound, per cent of control [8]: 100%; kinase still bound, per cent of control (PIP4K2C (human)): 66%; kinase still bound, per cent of control (PIP5K1C (human)): 100%; kinase still bound, per cent of control (PRKCI (human)): 93%; kinase still bound, per cent of control (PRPF4B (human)): 90%; kinase still bound, per cent of control (SBK1 (human)): 20%; kinase still bound, per cent of control (SGK3 (human)): 85%; kinase still bound, per cent of control (SIK3 (human)): 92%; kinase still bound, per cent of control (SNRK (human)): 68%; kinase still bound, per cent of control (TBK1 (human)): 84%; kinase still bound, per cent of control (VRK2 (human)): 11%
